Source: ChEMBL document CHEMBL1201862, “PubChem BioAssay data set” (2004)
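Method: 48-hour compound exposure of cells in 96-well plates, five concentrations, linear interpolation of endpoints. Abbreviation: GI50, concentration required for 50% inhibition of growth.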 The source made the active and inactive calls. Rule as the data show it: active = GI50 up to about 1.1 µM and inactive = higher.

Columns and labels:
Test in all cases: NCI anticancer screen, dose series, 48 h
HOP-62 = test system: HOP-62
SK-OV-3 = test system: SK-OV-3
HOP-92 = test system: HOP-92
SK-MEL-28 = test system: SK-MEL-28
OVCAR-3 = test system: OVCAR-3
HCT-15 = test system: HCT-15
A549 = test system: A549
SF-268 = test system: SF-268
RPMI-8226 = test system: RPMI-8226
T47D = test system: T47D
Malme-3M = test system: Malme-3M
OVCAR-4 = test system: OVCAR-4
MDA-MB-231 = test system: MDA-MB-231
MDA-N = test system: MDA-N
SF-539 = test system: SF-539
NCI-H460 = test system: NCI-H460
MDA-MB-435 = test system: MDA-MB-435
SN12C = test system: SN12C
OVCAR-5 = test system: OVCAR-5
NCI/ADR-RES = test system: NCI/ADR-RES

Row | Structure (SMILES) | GI50 (HOP-62) | GI50 (SK-OV-3) | GI50 (HOP-92) | GI50 (SK-MEL-28) | GI50 (OVCAR-3) | GI50 (HCT-15) | GI50 (A549) | GI50 (SF-268) | GI50 (RPMI-8226) | GI50 (T47D) | GI50 (Malme-3M) | GI50 (OVCAR-4) | GI50 (MDA-MB-231) | GI50 (MDA-N) | GI50 (SF-539) | GI50 (NCI-H460) | GI50 (MDA-MB-435) | GI50 (SN12C) | GI50 (OVCAR-5) | GI50 (NCI/ADR-RES)
1 | O=C(Nn1cc(F)c(=O)[nH]c1=O)C12CC3CC(CC(C3)C1)C2 | 12 µM (inactive) | 18.4 µM (inactive) | 8.69 µM (inactive) | 12.9 µM (inactive) | 10.4 µM (inactive) | 6.56 µM | 6.27 µM (inactive) | 29.2 µM (inactive) | 6.93 µM (inactive) | 20.2 µM (inactive) | 6.73 µM (inactive) | 10.2 µM (inactive) | 12.7 µM (inactive) | 8.97 µM (inactive) | 2.21 µM (inactive) | 1.91 µM (inactive) | 10 µM (inactive) | 11.5 µM (inactive) | 21.7 µM (inactive) | 24.2 µM (inactive)
2 | COP(=N[Si](C)(C)C)(OC)OC | > 100 µM (inactive) | > 100 µM (inactive) | > 100 µM (inactive) | > 100 µM (inactive) | > 100 µM (inactive) | > 100 µM | > 100 µM (inactive) | > 100 µM (inactive) | > 100 µM (inactive) | > 100 µM (inactive) | > 100 µM (inactive) | > 100 µM (inactive) | > 100 µM (inactive) | > 100 µM (inactive) | > 100 µM (inactive) | > 100 µM (inactive) | > 100 µM (inactive) | > 100 µM (inactive) | > 100 µM (inactive) | > 100 µM (inactive)
3 | Nc1ccc2c(=S)c3ccccc3[nH]c2c1 | 24.3 µM (inactive) | 22.2 µM (inactive) | 26.2 µM (inactive) | 43.1 µM (inactive) | 28.2 µM (inactive) | 24.2 µM | 23.3 µM (inactive) | 65.9 µM (inactive) | 13.8 µM (inactive) | 20.1 µM (inactive) | 40.3 µM (inactive) | 62.8 µM (inactive) | 28.2 µM (inactive) | 46.8 µM (inactive) | 33.2 µM (inactive) | 27.4 µM (inactive) | 42.2 µM (inactive) | > 77.6 µM (inactive) | > 61.2 µM (inactive) | 43.3 µM (inactive)
4 | CC1=NN(c2nc(N)nc(/C(C#N)=C\c3ccc([N+](=O)[O-])s3)n2)C(C)(C)C1 | 0.316 µM (active) | 8.99 µM (inactive) | 0.302 µM (active) | 0.383 µM (active) | 0.124 µM (active) | 0.108 µM | 0.887 µM (active) | 0.408 µM (active) | 0.0218 µM (active) | 0.0743 µM (active) | 0.764 µM (active) | 2.55 µM (inactive) | 0.22 µM (active) | 0.34 µM (active) | 0.169 µM (active) | 0.209 µM (active) | 0.233 µM (active) | 0.363 µM (active) | 3.46 µM (inactive) | 1.18 µM (inactive)
5 | CC(=O)Nc1cccc(N2C(=O)/C(=C\c3cccc(Oc4ccccc4)c3)SC2c2ccccc2)c1 (stereo not given) | > 100 µM (inactive) | 76 µM (inactive) | 32.5 µM (inactive) | 79.1 µM (inactive) | 50.7 µM (inactive) | > 100 µM | 94.8 µM (inactive) | 72.1 µM (inactive) | 30.3 µM (inactive) | 78.7 µM (inactive) | > 100 µM (inactive) | 53.5 µM (inactive) | > 100 µM (inactive) | 28.1 µM (inactive) | 38.4 µM (inactive) | > 100 µM (inactive) | 33.9 µM (inactive) | > 100 µM (inactive) | > 100 µM (inactive) | 60.8 µM (inactive)
